Test results as given in PMC5431432, “Low-basicity 5-HT7 Receptor Agonists Synthesized Using the van Leusen Multicomponent Protocol” (Scientific Reports, 2017).
Entries after “also recorded” stand apart in the source; their conditions may differ. Like-named read-outs stand apart in the source and are kept apart here.

What was measured:
human serotonin 5-HT6R = human serotonin 5-HT6R (Homo sapiens, UniProt P50406); experiment: Radioligand binding, [3H]-LSD displacement
[1] = molecular target: T1, human serotonin 5-HT2A receptor (Homo sapiens, UniProt P28223); experiment: Radioligand binding, [3H]-ketanserin displacement
T1 construct: host or cells: CHO-K1

human serotonin 5-HT1AR = molecular target: T2, human serotonin 5-HT1AR (Homo sapiens, UniProt P08908); experiment: Radioligand binding, [3H]-8-OH-DPAT displacement
T2 sequence (P08908 1-422): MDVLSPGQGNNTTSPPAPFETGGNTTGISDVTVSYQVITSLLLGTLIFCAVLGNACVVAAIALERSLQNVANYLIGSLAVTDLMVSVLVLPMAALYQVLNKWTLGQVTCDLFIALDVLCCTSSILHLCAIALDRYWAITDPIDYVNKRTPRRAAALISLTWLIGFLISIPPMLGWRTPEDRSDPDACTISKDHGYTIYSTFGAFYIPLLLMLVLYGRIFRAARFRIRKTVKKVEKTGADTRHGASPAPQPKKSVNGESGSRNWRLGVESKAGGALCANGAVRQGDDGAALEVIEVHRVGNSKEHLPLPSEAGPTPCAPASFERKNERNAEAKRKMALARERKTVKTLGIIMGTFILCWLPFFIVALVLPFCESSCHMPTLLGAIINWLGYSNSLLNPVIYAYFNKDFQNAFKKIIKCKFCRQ

human serotonin 5-HT7bR = human serotonin 5-HT7bR (Homo sapiens, UniProt P34969); experiment: Radioligand binding, [3H]-5-CT displacement
human dopamine D2LR = human dopamine D2LR (Homo sapiens, UniProt P14416); experiment: Radioligand binding, [3H]-raclopride displacement
human 5-HT7 receptor = human 5-HT7 receptor (Homo sapiens, UniProt P34969); experiment: Functional assay, cAMP production (TR-FRET) in HEK293 cells overexpressing 5-HT7R; type: cell-based; conditions: for EC50: hydrochloride salts
CYP3A4 [2] = molecular target: T3, CYP3A4 (Homo sapiens, UniProt P08684); experiment: biochemical
Protocol: (§1) Drug-drug interactions (DDI) – the influence on CYP3A4 activity
(§2) The luminescent CYP3A4 P450-Glo™ assay and protocol were provided by Promega (Madison, WI, USA)
(§3) was obtained from Sigma-Aldrich (St. Louis, USA). The enzymatic reactions were performed in white
(§4) polystyrene, flat-bottom Nunc™ MicroWell™ 96-Well Microplates (Thermo Scientific, Waltham, MA
(§5) USA). The luminescence signal was measured with a microplate reader in luminescence mode (EnSpire,
PerkinElmer, Waltham, MA USA).
The final concentrations of 1e and
to calculate IC50 values.

α2C = molecular target: T4, α2C (Homo sapiens, UniProt P18825); experiment: Eurofins Cerep binding screen α2C; conditions: 10^−6 M; read-out: % Inhibition of control binding α2C
T4 construct: Eurofins Cerep (contract screen)
T4 sequence (P18825 1-462): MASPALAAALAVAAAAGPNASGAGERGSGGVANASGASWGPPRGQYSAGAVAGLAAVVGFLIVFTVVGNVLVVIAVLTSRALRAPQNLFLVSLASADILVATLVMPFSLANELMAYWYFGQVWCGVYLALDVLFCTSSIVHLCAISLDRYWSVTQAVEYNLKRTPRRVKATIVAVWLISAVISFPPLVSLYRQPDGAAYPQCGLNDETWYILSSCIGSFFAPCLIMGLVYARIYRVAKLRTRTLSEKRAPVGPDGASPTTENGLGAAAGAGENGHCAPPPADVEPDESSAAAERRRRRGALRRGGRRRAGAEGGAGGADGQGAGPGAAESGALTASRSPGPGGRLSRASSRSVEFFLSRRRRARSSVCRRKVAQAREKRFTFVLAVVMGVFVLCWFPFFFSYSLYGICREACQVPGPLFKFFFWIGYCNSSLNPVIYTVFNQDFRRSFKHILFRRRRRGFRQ

CYP3A4 [3] = molecular target: T3, CYP3A4; experiment: in vitro; conditions: CYP3A4 enzyme (Promega P450-Glo luminescent assay)
Protocol: as §1, §2, §3, §4, §5
PerkinElmer, Waltham, MA USA).
The final concentrations of 1e and
to calculate IC50 values.

HEK-293 cells = experiment: MTS cytotoxicity assay HEK-293; type: cell-based, human; conditions: 72 h incubation, 0.1–100 μM
Protocol: (§6) The cell line was cultured in Dulbecco’s Modified Eagle’s Medium DMEM (Gibco) with 10% fetal bovine
(§7) The cells were cultured in Modified Eagle’s Medium
(§8) MEM with 100 mg/ml streptomycin and 100 U/ml penicillin, 1%, Non Essential Amino Acids (NEAA) and
(§9) solutions of examined compounds in DMSO were diluted into fresh growth medium and added into the
(§10) microplates at the final concentrations 0.1 μM – 100 μM. The well-known cytostatic compound
(§11) doxorubicin (DX) 1 μM was used as a positive control for both cell lines. Additionally, carbonyl cyanide
(§12) 3-chlorophenylhydrazone (CCCP) 10 μM was used as positive control mitochondrial toxin for hepatocytes.
(§13) Proliferation Assay, Promega) was added to the each well and the cells were incubated under the same
(§14) conditions for 4 h. The absorbance of the samples was measured using a microplate reader (PerkinElmer) at

H1 = molecular target: T5, H1 (Homo sapiens, UniProt P35367); experiment: Eurofins Cerep binding screen H1; conditions: 10^−6 M; read-out: % Inhibition of control binding H1
T5 construct: Eurofins Cerep (contract screen)

α1 = experiment: Eurofins Cerep binding screen α1; conditions: 10^−6 M
D3 = molecular target: T6, D3 (Homo sapiens, UniProt P35462); experiment: Eurofins Cerep binding screen D3; conditions: 10^−6 M; read-out: % Inhibition of control binding D3
T6 construct: Eurofins Cerep (contract screen)

HepG2 cells = experiment: MTS cytotoxicity assay HepG2; type: cell-based; conditions: 72 h incubation, 0.1–100 μM
Protocol: as §6, §7, §8, §9, §10, §11, §12, §13, §14

5-HT2B = molecular target: T7, 5-HT2B (Homo sapiens, UniProt P41595); experiment: Eurofins Cerep binding screen 5-HT2B; conditions: read-out: % Inhibition of control binding 5-HT2B; for inhibition at 1 µM: 10^−6 M (1 µM); for inhibition at 0.01 µM: 10^−8 M (10 nM)
T7 construct: Eurofins Cerep (contract screen)

[4] = Metabolic stability in human liver microsomes; type: in vitro ADME; conditions: for CLint scaled at 50 μM: human, read-out: Clint, metabolic clearance
Protocol: The in vitro evaluation of metabolic stability was performed by using human liver microsomes
(HLMs) (Sigma-Aldrich, St. Louis, MO, USA). The reaction mixtures consisted of 50 μM of tested
compounds with microsomes (1 mg/ml) in 10 mM tris-HCl buffer.
preincubation, the 50 µL of NADPH Regeneration System (Promega, Madison, WI, USA) was
added to initiate the reaction. The reactions were terminated by the addition of the cold methanol
The mixtures were centrifuged
The course of reaction was followed by using the
analyte/IS peak height ratio values.
Mass spectra were recorded on a UPLC-MS/MS system consisted of a Waters ACQUITY® UPLC® (Waters Corporation, Milford, MA, USA) coupled to a Waters TQD mass spectrometer
(electrospray ionization mode ESI-tandem quadrupole). Chromatographic separations were carried
particle size, equipped with Acquity UPLC BEH C18 VanGuard pre-column; 2.1 × 5 mm, and
The column was maintained at 40 °C, and eluted under gradient conditions
acid (0.1%, v/v); eluent B: acetonitrile/formic acid (0.1%, v/v). Chromatograms were made using
sampling rate 20 points/s. MS detection settings of Waters TQD mass spectrometer were as
600 L h−1, cone gas flow 100 L h−1, capillary potential 3.00 kV, cone potential 40 V. Nitrogen was
used for both nebulizing and drying gas. The data were obtained in a scan mode ranging from 50 to
2000 m/z in time 1.0 s intervals. Data acquisition software was MassLynx V 4.1 (Waters). The

5-HT5A = molecular target: T8, 5-HT5A (Homo sapiens, UniProt P47898); experiment: Eurofins Cerep binding screen 5-HT5A; conditions: 10^−6 M; read-out: % Inhibition of control binding 5-HT5A
T8 construct: Eurofins Cerep (contract screen)

CB1 = molecular target: T9, CB1 (Homo sapiens, UniProt P21554); experiment: Eurofins Cerep binding screen CB1; conditions: 10^−6 M; read-out: % Inhibition of control binding CB1
T9 construct: Eurofins Cerep (contract screen)

[5] = Water solubility (statement); type: physicochemical
5-HT1B = molecular target: T10, 5-HT1B (Homo sapiens, UniProt P28222); experiment: Eurofins Cerep binding screen 5-HT1B; conditions: 10^−6 M; read-out: % Inhibition of control binding 5-HT1B
T10 construct: Eurofins Cerep (contract screen)

[6] = Pharmacokinetics after i.p. administration in mice; type: in vivo, CD-1 mice
Protocol: A group of 32 adult male mice (CD-1, 18-21 g) were used in the experiment.
During the habituation period the groups of 4 mice were kept in a plastic cage (252 mm x 167 cm x
140 cm) at a controlled room temperature (22±2°C), humidity (55±10%), full spectrum cold white light
access to standard laboratory pellet and tap water.
administered by an intraperitoneal (i.p.) administration at a dose of 5 mg/kg. Blood samples were collected
administration. The blood and brain samples were collected under general anesthesia induced by i.p.
injections of 50 mg/kg ketamine plus 8 mg/kg xylazine. The blood samples were taken into heparinized
tubes, immediately centrifuged at 3500 rpm for 10 min and plasma was collected. The brain and plasma
samples were immediately frozen at - 80°C for LC/MS/MS analysis.
Pharmacokinetic parameters were calculated by a non-compartmental approach from the average
elimination rate constant (λz) was calculated by linear regression of time versus log concentration. Next, the
area under the mean serum and tissue concentration versus time curve (AUC0→t) was estimated using the
log-linear trapezoidal rule (Eq. 1), where Cn is the concentration of last sampling of each compound.
Area under the first-moment curve (AUMC0→t) was estimated by calculation of the total area under the
first-moment curve using the equation 2, where tn is the time of last sampling.
Mean residence time (MRT) was calculated as:
Total clearance (ClT) was calculated as:
Volume of distribution (Vd) was calculated as:
The quantification of studied compound in plasma and brain samples was done using UPLC Agilent 1100
system (Agilent Technologies, Waldbronn, Germany) coupled to the triple quadrupole mass spectrometer
API 2000 (ABSciex, Framingham, Massachusetts, USA) equipped with electrospray ion source. After
Milford, Massachusetts, USA) analytical column. The mobile phase consisted of ACN with 0.1% formic
acid (A) and water with 0.1% formic acid (B) were delivered in gradient elution started with 90% of eluent
B, increasing during 2 min to 90% of eluent A, maintained to 3 min, and then returned during 5 min to 90% of
eluent B, and maintained 90% of eluent B during 5 min at a flow rate of 300 µL/min. The total time of
analysis was 10 min. Electrospray ionization process was performed in positive ionization and the data
(nebivolol). The ion spray source settings were as follows: spray voltage: 5.5 kV, heater temperature:
400°C, curtain gas: 20 psi, source gas 1: 40 psi, source gas 2: 20 psi.

[7] = tested on: MK-801 induced impairment in novel object recognition; experiment: Novel object recognition test, reversal of MK-801 induced impairment; set-up: species or system Albino Swiss mice; conditions: mouse, in vivo
Protocol: The experiment was conducted on Albino Swiss mice (see Supporting Information).
trained and tested in a black, plastic, open field (50 × 30 cm, 35 cm high) with the floor divided into 20-cm
The open field was in a dark room illuminated only by a 25 W bulb. On the first day
(adaptation) the animals were allowed to explore the open field for 10 min. On the next day (training, T1) the
animals were administered the tested drugs, placed in the apparatus and allowed to explore two identical
objects (cylindrical objects with walls painted white, 7 cm in diameter, 11 cm high) for the time required to
complete 15 s of exploration of either object. For the retention trial (T2) conducted one h later, one of the
objects presented in T1 was replaced with a novel object (a prism-shaped object with walls painted black,
5 cm wide, 14 cm high). The duration of exploration of each object (i.e., sitting in close proximity to the
objects or sniffing or touching them) during 5 min time was video recorded and measured separately by a
trained observer. All drugs were administered before the training (T1) session.

[8] = Fig. 2, read-out: pKi 5-HT6 (converted)
[9] = Fig. 2, read-out: pKi 5-HT2A (converted)
[10] = Fig. 2, read-out: pKi 5-HT1A (converted)
[11] = Fig. 2, read-out: pKi D2 (converted)

T3 sequence (P08684 whole entry): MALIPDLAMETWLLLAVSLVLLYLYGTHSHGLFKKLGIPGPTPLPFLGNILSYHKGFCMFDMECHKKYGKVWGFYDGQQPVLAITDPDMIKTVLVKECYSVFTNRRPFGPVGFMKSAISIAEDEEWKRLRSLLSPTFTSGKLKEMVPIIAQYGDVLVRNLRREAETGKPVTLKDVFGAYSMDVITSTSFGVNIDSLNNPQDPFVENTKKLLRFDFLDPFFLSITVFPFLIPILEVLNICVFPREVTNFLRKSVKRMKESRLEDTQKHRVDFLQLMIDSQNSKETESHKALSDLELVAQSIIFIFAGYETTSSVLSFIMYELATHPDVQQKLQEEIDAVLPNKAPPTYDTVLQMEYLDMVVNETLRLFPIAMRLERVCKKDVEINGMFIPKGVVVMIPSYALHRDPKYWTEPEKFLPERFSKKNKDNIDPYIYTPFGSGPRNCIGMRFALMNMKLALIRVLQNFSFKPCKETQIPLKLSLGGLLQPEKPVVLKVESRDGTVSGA
Sequence of human serotonin 5-HT7bR (P34969 1-432 limits assumed): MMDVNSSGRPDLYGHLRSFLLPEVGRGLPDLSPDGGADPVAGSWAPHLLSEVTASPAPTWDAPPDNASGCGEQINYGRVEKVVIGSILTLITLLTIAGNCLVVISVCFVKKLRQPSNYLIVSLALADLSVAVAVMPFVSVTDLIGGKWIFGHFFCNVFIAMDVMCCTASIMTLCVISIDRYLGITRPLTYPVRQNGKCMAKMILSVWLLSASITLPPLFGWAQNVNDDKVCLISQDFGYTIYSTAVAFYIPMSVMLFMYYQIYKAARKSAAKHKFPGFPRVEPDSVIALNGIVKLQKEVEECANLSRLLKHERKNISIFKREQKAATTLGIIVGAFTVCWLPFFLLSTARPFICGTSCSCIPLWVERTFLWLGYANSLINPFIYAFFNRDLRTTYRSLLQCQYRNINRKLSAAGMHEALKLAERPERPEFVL
Sequence of human 5-HT7 receptor (P34969 1-432 limits assumed): as above
Sequence of human dopamine D2LR (P14416 whole entry): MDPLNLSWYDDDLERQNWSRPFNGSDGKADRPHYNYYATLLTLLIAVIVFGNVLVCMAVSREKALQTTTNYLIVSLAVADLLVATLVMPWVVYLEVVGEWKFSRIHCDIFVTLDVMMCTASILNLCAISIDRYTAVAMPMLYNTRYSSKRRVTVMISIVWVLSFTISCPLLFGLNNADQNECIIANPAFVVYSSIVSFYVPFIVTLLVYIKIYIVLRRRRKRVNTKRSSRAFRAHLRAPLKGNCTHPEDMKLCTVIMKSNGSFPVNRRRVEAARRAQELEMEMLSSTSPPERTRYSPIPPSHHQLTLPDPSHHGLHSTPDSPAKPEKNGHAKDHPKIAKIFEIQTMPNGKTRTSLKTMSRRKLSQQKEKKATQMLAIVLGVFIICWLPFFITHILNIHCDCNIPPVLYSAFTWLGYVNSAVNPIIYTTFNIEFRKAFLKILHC
T7 sequence (P41595 whole entry, species assumed): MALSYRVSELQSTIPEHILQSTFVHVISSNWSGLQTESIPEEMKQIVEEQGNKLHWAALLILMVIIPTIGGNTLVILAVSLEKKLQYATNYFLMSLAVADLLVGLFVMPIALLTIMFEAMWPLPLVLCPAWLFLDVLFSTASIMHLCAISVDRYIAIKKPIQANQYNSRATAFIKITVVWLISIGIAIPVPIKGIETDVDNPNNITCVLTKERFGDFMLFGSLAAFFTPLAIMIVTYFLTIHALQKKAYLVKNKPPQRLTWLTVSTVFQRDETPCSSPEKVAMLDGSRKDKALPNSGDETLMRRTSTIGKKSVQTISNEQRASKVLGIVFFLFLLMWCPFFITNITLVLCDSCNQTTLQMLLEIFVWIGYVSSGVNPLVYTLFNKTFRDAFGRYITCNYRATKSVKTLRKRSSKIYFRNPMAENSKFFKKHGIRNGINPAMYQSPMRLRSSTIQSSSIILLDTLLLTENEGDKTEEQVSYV
Sequence of human serotonin 5-HT6R (P50406 whole entry): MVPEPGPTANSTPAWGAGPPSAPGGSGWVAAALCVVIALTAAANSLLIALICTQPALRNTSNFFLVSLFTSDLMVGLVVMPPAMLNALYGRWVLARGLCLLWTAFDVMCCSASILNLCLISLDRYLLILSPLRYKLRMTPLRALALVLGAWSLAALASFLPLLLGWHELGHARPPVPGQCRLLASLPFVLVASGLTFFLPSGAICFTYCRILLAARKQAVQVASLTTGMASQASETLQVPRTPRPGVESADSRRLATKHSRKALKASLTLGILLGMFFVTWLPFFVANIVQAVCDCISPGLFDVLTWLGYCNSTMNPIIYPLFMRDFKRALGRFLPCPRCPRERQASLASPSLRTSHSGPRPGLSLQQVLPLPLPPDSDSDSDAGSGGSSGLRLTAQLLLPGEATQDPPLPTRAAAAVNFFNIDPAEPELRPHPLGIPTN
T1 sequence (P28223 whole entry): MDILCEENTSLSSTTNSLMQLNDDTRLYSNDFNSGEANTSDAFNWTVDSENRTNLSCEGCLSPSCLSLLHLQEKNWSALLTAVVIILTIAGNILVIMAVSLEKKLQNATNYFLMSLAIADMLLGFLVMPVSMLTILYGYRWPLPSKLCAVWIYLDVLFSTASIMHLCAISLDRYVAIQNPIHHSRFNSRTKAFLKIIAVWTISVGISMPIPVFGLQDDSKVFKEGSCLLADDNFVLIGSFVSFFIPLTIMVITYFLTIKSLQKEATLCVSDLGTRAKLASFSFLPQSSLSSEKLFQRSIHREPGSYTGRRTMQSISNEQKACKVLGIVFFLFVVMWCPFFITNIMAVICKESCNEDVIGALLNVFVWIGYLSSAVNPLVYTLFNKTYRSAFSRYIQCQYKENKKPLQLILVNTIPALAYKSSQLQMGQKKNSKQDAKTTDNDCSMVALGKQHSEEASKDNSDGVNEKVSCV
T8 sequence (P47898 whole entry, species assumed): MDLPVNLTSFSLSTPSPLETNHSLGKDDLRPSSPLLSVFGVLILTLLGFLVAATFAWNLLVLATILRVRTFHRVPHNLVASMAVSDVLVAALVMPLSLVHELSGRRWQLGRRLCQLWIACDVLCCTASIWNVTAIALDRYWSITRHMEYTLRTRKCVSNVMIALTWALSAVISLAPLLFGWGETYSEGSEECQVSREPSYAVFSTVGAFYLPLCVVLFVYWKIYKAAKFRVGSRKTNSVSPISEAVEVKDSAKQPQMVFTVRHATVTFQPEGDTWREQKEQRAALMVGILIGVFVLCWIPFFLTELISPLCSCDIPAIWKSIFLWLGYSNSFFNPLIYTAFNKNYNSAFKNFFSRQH
T10 sequence (P28222 whole entry, species assumed): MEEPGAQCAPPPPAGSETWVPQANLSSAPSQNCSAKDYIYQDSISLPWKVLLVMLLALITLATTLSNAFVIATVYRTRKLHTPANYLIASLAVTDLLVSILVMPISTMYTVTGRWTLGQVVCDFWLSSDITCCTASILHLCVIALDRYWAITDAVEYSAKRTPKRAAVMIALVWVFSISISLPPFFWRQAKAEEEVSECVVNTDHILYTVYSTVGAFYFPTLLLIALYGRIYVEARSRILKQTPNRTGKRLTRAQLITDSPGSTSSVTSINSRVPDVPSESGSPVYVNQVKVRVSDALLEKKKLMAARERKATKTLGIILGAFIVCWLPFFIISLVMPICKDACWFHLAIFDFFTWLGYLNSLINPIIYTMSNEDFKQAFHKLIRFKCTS
T6 sequence (P35462 whole entry): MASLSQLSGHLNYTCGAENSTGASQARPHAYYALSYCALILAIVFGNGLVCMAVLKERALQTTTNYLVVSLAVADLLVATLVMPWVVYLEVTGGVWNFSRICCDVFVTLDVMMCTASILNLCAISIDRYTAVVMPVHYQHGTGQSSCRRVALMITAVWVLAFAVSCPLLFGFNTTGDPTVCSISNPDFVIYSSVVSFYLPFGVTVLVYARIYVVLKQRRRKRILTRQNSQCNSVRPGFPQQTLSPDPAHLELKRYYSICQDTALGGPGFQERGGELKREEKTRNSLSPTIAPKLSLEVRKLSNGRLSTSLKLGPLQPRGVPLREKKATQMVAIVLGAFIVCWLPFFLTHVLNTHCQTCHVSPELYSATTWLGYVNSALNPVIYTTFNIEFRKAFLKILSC
T9 sequence (P21554 whole entry, species assumed): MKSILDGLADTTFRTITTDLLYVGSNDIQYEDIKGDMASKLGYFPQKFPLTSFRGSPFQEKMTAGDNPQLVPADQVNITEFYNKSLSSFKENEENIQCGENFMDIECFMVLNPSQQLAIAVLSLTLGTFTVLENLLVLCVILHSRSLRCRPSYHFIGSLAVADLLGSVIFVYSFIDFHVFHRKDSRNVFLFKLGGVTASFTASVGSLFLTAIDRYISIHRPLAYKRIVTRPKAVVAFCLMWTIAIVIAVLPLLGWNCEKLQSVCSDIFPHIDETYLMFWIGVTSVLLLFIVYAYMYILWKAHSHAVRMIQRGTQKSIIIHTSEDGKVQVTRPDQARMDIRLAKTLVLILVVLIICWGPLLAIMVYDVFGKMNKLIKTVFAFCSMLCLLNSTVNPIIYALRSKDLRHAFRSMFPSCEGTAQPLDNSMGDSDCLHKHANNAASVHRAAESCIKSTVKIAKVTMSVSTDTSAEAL
T5 sequence (P35367 whole entry): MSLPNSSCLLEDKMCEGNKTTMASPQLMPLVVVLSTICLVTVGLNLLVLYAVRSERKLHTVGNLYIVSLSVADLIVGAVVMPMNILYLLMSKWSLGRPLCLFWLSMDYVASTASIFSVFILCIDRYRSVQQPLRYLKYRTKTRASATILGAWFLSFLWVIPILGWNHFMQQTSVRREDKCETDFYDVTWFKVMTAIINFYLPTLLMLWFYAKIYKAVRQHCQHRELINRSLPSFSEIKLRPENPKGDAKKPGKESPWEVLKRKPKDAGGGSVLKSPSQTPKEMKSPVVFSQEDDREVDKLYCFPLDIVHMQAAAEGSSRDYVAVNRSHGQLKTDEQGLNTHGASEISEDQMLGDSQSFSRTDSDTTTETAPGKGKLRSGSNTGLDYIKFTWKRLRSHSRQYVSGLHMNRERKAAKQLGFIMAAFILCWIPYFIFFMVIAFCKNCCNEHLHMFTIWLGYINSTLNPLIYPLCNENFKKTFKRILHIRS

Cn1cncc1-c1c[nH]c2ccccc12 [1a]
Ki (human serotonin 5-HT6R; [8]): 3390 nM | Ki [1, 9]: 6920 nM | Ki (human serotonin 5-HT1AR; [10]): 4470 nM | selectivity over 5-HT1AR (human serotonin 5-HT7bR): > 11 fold | Ki (human serotonin 5-HT7bR; read-out: Ki 5-HT7): 385 nM | Ki (human dopamine D2LR; [11]): 6920 nM | melting point: 88 to 90 °C

COc1ccc2[nH]cc(-c3cncn3C)c2c1 [1b]
Ki (human serotonin 5-HT6R; [8]): 2400 nM | function at the human 5-HT7 receptor (human 5-HT7 receptor): full agonists | EC50 (human 5-HT7 receptor): 150 nM | Ki [1, 9]: 3390 nM | Ki (human serotonin 5-HT1AR; [10]): 851 nM | selectivity over 5-HT1AR (human serotonin 5-HT7bR): > 11 fold | Ki (human serotonin 5-HT7bR; Table 1, the head of this column prints no unit, nM, read-out: K i (5-HT7R)): 55 nM | Ki (human dopamine D2LR; [11]): > 10000 nM | melting point: 236 °C

CCn1cncc1-c1c[nH]c2ccc(OC)cc12.Cl [1e, 3-(1-Ethyl-1H-imidazol-5-yl)-5-methoxy-1H-indole hydrochloride]
IC50 (CYP3A4 [2]): 270 nM | inhibition at 1 µM (α2C): 9% | IC50 (CYP3A4 [3]): 240 nM | cell viability in words, HEK-293 (HEK-293 cells): the cells remained viable in all tested concentrations | inhibition at 1 µM (H1): 6% | function at the human 5-HT7 receptor (human 5-HT7 receptor): full agonists | EC50 (human 5-HT7 receptor): 60 nM | % Inhibition of control binding α1 (α1): 5% | inhibition at 1 µM (D3): 8% | cell viability in words, HepG2 (HepG2 cells): the cells remained viable in all tested concentrations | inhibition at 1 µM (5-HT2B): 93% | inhibition at 0.01 µM (5-HT2B): 6% | main metabolic pathway ([4]; MS of metabolite M1): hydroxylation | CLint scaled at 50 μM [4]: 3.69 mL/min/kg | Ki (human serotonin 5-HT7bR; read-out: K i (5-HT7R)): 30 nM | inhibition at 1 µM (5-HT5A): 9% | inhibition at 1 µM (CB1): 8% | water solubility in words [5]: water soluble | inhibition at 1 µM (5-HT1B): 24%

CCn1cncc1-c1c[nH]c2ccc(Cl)cc12 [1m]
function at the human 5-HT7 receptor (human 5-HT7 receptor): full agonists | EC50 (human 5-HT7 receptor): 149 nM | Ki (human serotonin 5-HT7bR; read-out: K i (5-HT7R)): 42 nM

CCn1cncc1-c1c[nH]c2ccc(Br)cc12 [1n]
function at the human 5-HT7 receptor (human 5-HT7 receptor): full agonists | EC50 (human 5-HT7 receptor): 154 nM | Ki (human serotonin 5-HT7bR; read-out: K i (5-HT7R)): 20 nM

CCn1cncc1-c1c[nH]c2ccc(I)cc12 [1o, 3-(1-ethyl-1H-imidazol-5-yl)-5-iodo-1H-indole]
IC50 (CYP3A4 [2]): 170 nM | cell viability in words, HEK-293 (HEK-293 cells): toxic for the cells only in the highest concentration (100 μM) | function at the human 5-HT7 receptor (human 5-HT7 receptor): full agonists | EC50 (human 5-HT7 receptor): 19 nM | cell viability in words, HepG2 (HepG2 cells): toxic for the cells only in the highest concentration (100 μM) | inhibition at 1 µM (5-HT2B): 87% | inhibition at 0.01 µM (5-HT2B): 7% | CLint scaled at 50 μM [4]: 6.3 mL/min/kg | selectivity over 5-HT1AR (human serotonin 5-HT7bR): 176 fold | Ki (human serotonin 5-HT7bR; read-out: K i (5-HT7R)): 6 nM | blood/plasma ratio compared to LP-44 ([6]; 1o 5 mg/kg i.p. vs LP-44 10 mg/kg i.p.): three-fold higher | brain/plasma ratio compared to LP-211 ([6]; 1o 5 mg/kg i.p. vs LP-211 10 mg/kg i.p.): 9 times | Cmax brain ([6]; i.p. 5 mg/kg): 2723 ng/g | Cmax brain (molar) ([6]; i.p. 5 mg/kg): approx. 8 μM | maximum plasma concentration ([6]; i.p. 5 mg/kg): 749 ng/mL | maximum plasma concentration (molar) ([6]; i.p. 5 mg/kg): ~ 2.2 μM | time in which half of the compound was eliminated from the body ([6]; i.p. 5 mg/kg): ≤ 90 min | t0.5 brain ([6]; i.p. 5 mg/kg, brain): 130 min | last sampling time at which measurable ([6]; i.p. 5 mg/kg, plasma and brain): 6 h | MRT ([6]; male, CD-1, mouse, brain, ip, i.p. 5 mg/kg, read-out: MRT brain (converted)): 60 min | Kp ([6]; male, CD-1, mouse, brain/plasma, ip, i.p. 5 mg/kg, read-out: brain to plasma ratio): 6.34 | Tmax ([6]; male, CD-1, mouse, ip, i.p. 5 mg/kg, plasma): 15 min | Vd/F ([6]; male, CD-1, mouse, plasma, ip, i.p. 5 mg/kg): 46.6 L/kg | MRT ([6]; male, CD-1, mouse, plasma, ip, i.p. 5 mg/kg, read-out: MRT plasma (converted)): 27 min | inhibition at 1 µM (5-HT5A): 7% | reversal of MK-801 induced disruption in novel object recognition [7]: active; also recorded: dose-dependently reversed MK-801-induced disruption in novel object recognition; also recorded: reversed MK-801 induced novel object recognition impairment | water solubility in words [5]: water soluble | inhibition at 1 µM (5-HT1B): 40%

CCn1cncc1-c1c[nH]c2ccc(C)cc12 [1q]
function at the human 5-HT7 receptor (human 5-HT7 receptor): full agonists | EC50 (human 5-HT7 receptor): 45 nM | Ki (human serotonin 5-HT7bR; read-out: K i (5-HT7R)): 44 nM

COc1ccc(-c2c([N+](=O)[O-])ncn2C)cc1 [2a]
Ki (human serotonin 5-HT6R; [8]): > 10000 nM | Ki [1, 9]: > 10000 nM | binding to 5-HT1AR in words (human serotonin 5-HT1AR): did not bind | Ki (human serotonin 5-HT1AR; [10]): > 10000 nM | binding to 5-HT7R in words (human serotonin 5-HT7bR): did not bind | Ki (human serotonin 5-HT7bR; Fig. 2, read-out: pKi 5-HT7 (converted)): > 10000 nM | Ki (human dopamine D2LR; [11]): > 10000 nM | melting point: 171 °C

NCCc1c[nH]c2ccc(Cl)cc12 [5-chlorotryptamine, reference compound]
Ki (human serotonin 5-HT6R): 38 nM | Ki [1]: 317 nM | Ki (human serotonin 5-HT1AR): 16 nM | Ki (human serotonin 5-HT7bR): 16 nM | Ki (human dopamine D2LR): 2440 nM

Cc1ccc2[nH]cc(CCN)c2c1 [5-methyltryptamine, reference compound]
Ki (human serotonin 5-HT6R): 327 nM | Ki [1]: 2280 nM | Ki (human serotonin 5-HT1AR): 39 nM | Ki (human serotonin 5-HT7bR): 26 nM | Ki (human dopamine D2LR): > 10000 nM
